How the values were obtained:
β1-AR = biological target: T1, β1-AR (Homo sapiens, UniProt P08588); assay: competition binding assay, membranes with recombinant β1-AR
T1 construct: expressed in transfected cells; membranes prepared from them

[1] = effect of food on oral absorption; type: in vivo, human
men and women with OAB = assay: Phase 2b study in OAB: efficacy (voiding diary); type: in vivo, human; conditions: OAB Wet
From the text: Part 2 was designed to continue to assess the safety and efficacy of concomitant dosing. […] Subjects in both Part 1 and Part 2 had the option of enrolling in a 1-year extension. Participants were required to keep a voiding diary, recording the occurrence of each strong urge, total incontinence, and urge incontinence episode. Efficacy data for Part 1 and Part 2 are summarized herein.
The total number of urgency incontinence episodes must have exceeded the total number of stress incontinence episodes for all subjects.
Conversely, a dose dependent effect on urge incontinence or total incontinence was not observed.

healthy subjects [2] = assay: multiple-dose Phase 1 study: maximum MA4 heart rate; type: in vivo, human; conditions: Day 14
Experimental: More intensive assessments of heart rate and blood pressure were performed in healthy volunteers in several Phase 1 studies. […] Doses ranged from 25 to 400 mg once daily for 7 to 28 days depending on the cohort. Least squares mean and 90% confidence intervals of maximum change from baseline in moving average of heart rate over 4 hours postdose (MA4 HR) are presented in Table 18.

[3] = dose-Cmax and dose-AUC models, log-log regression and simulations for 75 mg; parameters: species or system human
Experimental: In order to contextualize PK parameters of a 75 mg dose, dose-Cmax and dose-AUC models were created using data from Phase 1 studies.

[4] = tested on: men and women with overactive bladder; assay: Phase 3 study vibegron 75 mg: post-void residual urine volume (Tables 26-28); type: in vivo, human
From the text: The risk of acute urinary retention or morbidities related to an increase in Post-Void Residual (PVR) is a concern with antimuscarinic therapy that promotes smooth muscle relaxation by inhibiting acetylcholine-induced smooth muscle contraction. If, during contraction, the bladder cannot generate enough pressure to overcome the outlet resistance in the urethra, either because of poor detrusor contractility or profound obstruction (most commonly from BPH), acute urinary retention or incomplete emptying of the bladder may result.
The volume of urine that remains in the bladder after voiding (PVR) is an objective measurement that may serve as a proxy for impaired ability to void.
PVR were performed via ultrasound at the visits indicated in the Schedule of Activities.
In addition, the data on the Post Void Residual Urine Volume (PVR) in all males and males with a medical history of BPH is shown in Tables 26 and 27, respectively.

[5] = tested on: men and women with overactive bladder; assay: Phase 3 study vibegron 75 mg: safety and tolerability; type: in vivo, human; conditions: 75 mg QD, 12 weeks
Experimental: Safety analyses were conducted using the SAF and summarized by treatment group as treated. The treatment-emergent period is defined as the period of time from the first dose date of the double blinded Study Treatment through 28 days after the last dose of Study Treatment, or the date of initiation of another investigational agent or surgical intervention or rollover to the extension study, whichever occurs first. Safety was assessed through summaries of adverse events, the frequency of treatment discontinuations due to adverse events, and clinical laboratory evaluations.

healthy subjects [6] = conditions: in vivo
[7] = human, in vivo
[8] = 150 mg multiple doses, Day 14, middle-aged females
[9] = single 50 mg, Japanese young males
[10] = single 50 mg, non-Japanese young males
[11] = Males with medical history of BPH
[12] = all males, vibegron 75 mg or tolterodine ER 4 mg QD

T1 sequence (P08588 whole entry): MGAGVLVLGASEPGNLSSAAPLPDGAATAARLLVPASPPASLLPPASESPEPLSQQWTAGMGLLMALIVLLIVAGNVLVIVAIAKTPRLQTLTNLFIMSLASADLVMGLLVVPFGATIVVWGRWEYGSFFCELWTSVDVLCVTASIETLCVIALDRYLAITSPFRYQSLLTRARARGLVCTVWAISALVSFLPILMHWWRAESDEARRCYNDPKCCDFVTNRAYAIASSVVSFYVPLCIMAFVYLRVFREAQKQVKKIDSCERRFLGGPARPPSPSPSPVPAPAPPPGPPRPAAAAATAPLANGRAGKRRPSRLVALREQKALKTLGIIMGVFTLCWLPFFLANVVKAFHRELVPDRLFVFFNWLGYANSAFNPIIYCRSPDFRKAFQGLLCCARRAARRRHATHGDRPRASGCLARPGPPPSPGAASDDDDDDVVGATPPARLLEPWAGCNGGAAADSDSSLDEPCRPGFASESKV

O=C(Nc1ccc(C[C@@H]2CC[C@H]([C@H](O)c3ccccc3)N2)cc1)[C@@H]1CCc2nccc(=O)n21 [Vibegron, (6S)—N-[4-[[(2S,5R)-5-[(R)-hydroxy(phenyl)methyl]pyrrolidin-2-yl]methyl]phenyl]-4-oxo-7,8-dihydro-6H-pyrrolo[1,2-a]pyrimidine-6-carboxamide]
binding to β1-AR (β1-AR): does not bind
mean Cmax with food compared to fasted state ([1]; 150 mg multiple doses, Day 1): 59%
mean AUC0-24 with food compared to fasted state ([1]; 150 mg multiple doses, Day 1, middle-aged and elderly females): ~42%
mean AUC0-24 with food compared to fasted state ([1]; 150 mg multiple doses, Day 14): ~20%
mean Cmax with food compared to fasted state ([1]; 150 mg multiple doses, Day 14): 43%
reduction in mean AUC0-24hr with food vs fasted [1, 8]: 20%
reduction in mean Cmax with food vs fasted [1, 8]: 47%
Tmax ([1]; male, human, plasma, oral, single 50 mg, non-Japanese young males, read-out: delay in Tmax with high-fat meal): ~1 h
reduction in AUC0-inf with standard Japanese breakfast [1, 9]: 37%
reduction in Cmax with standard Japanese breakfast [1, 9]: 52%
reduction in AUC0-inf with high-fat meal vs fasted [1, 10]: 46%
reduction in Cmax with high-fat meal vs fasted [1, 10]: 67%
Urgency Incontinence Episodes daily number, Week 8 mean (men and women with OAB; vibegron 15 mg QD): 1.12
Total Incontinence Episodes daily number, Week 8 mean (men and women with OAB; vibegron 100 mg QD): 1.12
Maximum MA4 HR change from baseline, LS mean (healthy subjects [2]; 25 mg QD): 1.47 bpm
Maximum MA4 HR, difference from placebo (healthy subjects [2]; 25 mg QD): −1.60 bpm
Maximum MA4 HR change from baseline, LS mean (healthy subjects [2]; 50 mg QD): 1.50 bpm
Maximum MA4 HR, difference from placebo (healthy subjects [2]; 50 mg QD): −1.57 bpm
Maximum MA4 HR change from baseline, LS mean (healthy subjects [2]; 100 mg QD): 3.28 bpm
Maximum MA4 HR change from baseline, LS mean (healthy subjects [2]; 150 mg QD): 3.17 bpm
Maximum MA4 HR, difference from placebo (healthy subjects [2]; 150 mg QD): 0.10 bpm
Maximum MA4 HR change from baseline, LS mean (healthy subjects [2]; 200 mg QD): 5.67 bpm
Maximum MA4 HR, difference from placebo (healthy subjects [2]; 200 mg QD): 2.60 bpm
Maximum MA4 HR change from baseline, LS mean (healthy subjects [2]; 300 mg QD): 9.06 bpm
Maximum MA4 HR, difference from placebo (healthy subjects [2]; 300 mg QD): 5.98 bpm
Maximum MA4 HR change from baseline, LS mean (healthy subjects [2]; 400 mg QD): 10.33 bpm
Maximum MA4 HR, difference from placebo (healthy subjects [2]; 400 mg QD): 7.26 bpm
AUC of 75 mg lower than 200 mg single dose [3]: ~2 fold
AUC of 75 mg lower than 400 mg single dose [3]: ~6 fold
Cmax of 75 mg lower than 200 mg single dose [3]: approximately 3.3 fold
Cmax of 75 mg lower than 400 mg single dose [3]: ~9.2 fold
increase in Cmax with increase in dose from 50 to 100 mg [3]: ~4 fold
reduction in Cmax on decreasing dose from 100 mg to 75 mg [3]: ~40%
PVR Categories at Week 12: <100 mL [4, 11]: 96.6%
PVR Categories at Week 12: ≥100 mL to <200 mL [4, 11]: 0%
PVR Categories at Week 12: ≥200 mL to <350 mL [4, 11]: 3.4%
PVR Categories at Week 12: ≥350 mL [4, 11]: 0%
PVR Mean Change from Baseline at Week 12 (SD) [4, 11]: −3.4 (42.45) mL
PVR Mean Change from Baseline at Week 12 (SD) [4, 12]: 2.2 (48.45) mL
PVR category <100 mL at Week 12 [4, 12]: 89.7%
PVR category ≥100 mL to <200 mL at Week 12 [4, 12]: 7.7%
PVR category ≥200 mL to <350 mL at Week 12 [4, 12]: 2.6%
PVR category ≥350 mL at Week 12 [4, 12]: 0
PVR Categories at Week 12: <100 mL ([4]; study population as a whole): 89.9%
PVR Categories at Week 12: ≥100 mL to <200 mL ([4]; study population as a whole): 3.5%
PVR Categories at Week 12: ≥200 mL to <350 mL ([4]; study population as a whole): 0.6%
PVR Categories at Week 12: ≥350 mL ([4]; study population as a whole): 0%
PVR Mean Change from Baseline at Week 12 (SD) ([4]; study population as a whole): 0.4 (38.27) mL
tolerability [5]: favorable
thorough QT study finding (healthy subjects [6]): no clinically meaningful effect on QTc or blood pressure
dose recovered in feces [7]: approximately 59%
dose recovered in urine [7]: ~20%
